Earlier results as cited in publication PMC4358631 (Journal of Medicinal Chemistry, 2014).

Biological target: α3β4 nAChR (Rattus norvegicus, UniProt P04757+P12392)
Settings: compounds bind to the central lumen of the receptor

Chain of α3β4 nAChR (P04757 26-499): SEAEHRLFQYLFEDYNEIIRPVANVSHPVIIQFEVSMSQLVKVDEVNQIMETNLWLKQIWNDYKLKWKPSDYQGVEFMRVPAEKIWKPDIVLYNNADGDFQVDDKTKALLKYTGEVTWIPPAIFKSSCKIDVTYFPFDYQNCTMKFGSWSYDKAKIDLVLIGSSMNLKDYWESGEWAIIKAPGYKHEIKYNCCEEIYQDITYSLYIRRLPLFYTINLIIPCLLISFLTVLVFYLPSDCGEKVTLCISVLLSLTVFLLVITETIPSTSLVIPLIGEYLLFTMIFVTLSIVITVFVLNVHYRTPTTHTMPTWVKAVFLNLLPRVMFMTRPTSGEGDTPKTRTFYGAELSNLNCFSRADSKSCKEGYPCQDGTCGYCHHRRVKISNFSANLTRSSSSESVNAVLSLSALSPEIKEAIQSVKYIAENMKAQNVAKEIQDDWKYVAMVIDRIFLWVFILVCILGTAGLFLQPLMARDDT
Chain of α3β4 nAChR (P12392 22-495 limits assumed): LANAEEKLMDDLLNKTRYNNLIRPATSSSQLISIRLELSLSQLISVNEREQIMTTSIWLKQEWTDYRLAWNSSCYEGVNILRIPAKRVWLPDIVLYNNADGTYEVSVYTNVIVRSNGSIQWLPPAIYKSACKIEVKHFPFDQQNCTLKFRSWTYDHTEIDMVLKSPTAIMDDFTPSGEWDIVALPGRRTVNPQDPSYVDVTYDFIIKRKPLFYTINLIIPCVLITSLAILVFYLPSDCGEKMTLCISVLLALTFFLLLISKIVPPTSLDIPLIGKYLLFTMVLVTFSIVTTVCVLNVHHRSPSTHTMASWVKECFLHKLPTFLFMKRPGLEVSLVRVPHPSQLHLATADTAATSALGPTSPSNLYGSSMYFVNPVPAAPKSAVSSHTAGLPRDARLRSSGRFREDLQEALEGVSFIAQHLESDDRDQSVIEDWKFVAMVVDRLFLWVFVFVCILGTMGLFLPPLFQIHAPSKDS

| SMILES | inhibition of [3H]epibatidine binding |
| --- | --- |
| COCC[C@H]1CC2CN3CCc4c([nH]c5ccccc45)[C@](C(=O)OC)(C2)[C@H]13 [18-MC, 18-methoxycoronaridine] | do not inhibit |
| CNC1(C)C2CCC(C2)C1(C)C (centres unmarked) [mecamylamine] | do not inhibit |
